{"source": "patent US20230390297A1", "about": "“USE OF NUCLEOTIDE SYNTHESIS INHIBITORS FOR TARGETED THERAPY IN MLL3/4 COMPASS MUTANT CANCER” (priority 2022, published 2023)", "key": {"WT and Mll3/4 KO mESCs": {"system": "WT and Mll3/4 KO mESCs", "experiment": "RNA-seq of WT and Mll3/4 KO mESCs treated with LTX -/+ HPX", "format": "cell-based, mouse", "conditions": "0.3 μM LTX or 50 μM HPX alone, 48 hours; LTX effect almost completely rescued by HPX", "method": "(§1) FIG. 3. […] (A) WT and Mll3/4 KO cells were treated with 0-2.5 μM lometrexol (LTX)−/+50 hypoxanthine (HPX) for 48 hours. CellTiter-Glo® luminescent cell viability assay was performed to determine the percentage of inhibition under these conditions. (B) WT and KO cells were treated with 0.3 μM LTX−/+50 μM HPX for 48 hours, and cells were harvested for RNA-seq. Differential gene expression analyses were performed with indicated comparisons. (C) Principal component analysis of RNA-seq in (B). (D) Hierarchical clustering heatmap showing differentially expressed genes in KO cells in comparison with WT cells.\n(§2) FIG. 10. Mll3/4 KO mESCs are more sensitive to purine synthesis inhibition. (A-B) WT and Mll3/4 KO cells were treated with 0-2.5 μM lometrexol (LTX) (A) or 0-5 methotrexate (MTX) (B) for 48 hours. CellTiter-Glo® luminescent cell viability assay was performed to determine the percentage of inhibition under these conditions with three different Mll3/4 KO clones included. (C) WT and Mll3/4 KO cells were treated with 0-40 μM SHIINI for 48 hours. MTT cell viability assay was performed to determine the percentage of inhibition under these conditions with three different Mll3/4 KO clones included.\nGene count tables were constructed using HTseq (56) with Ensembl gene annotations and used as input for edgeR 3.0.8 (57). Genes with Benjamini-Hochburg adjusted p-values less than were differentially expressed. Batch effects were removed using ComB at-seq on the raw read counts (58). Pathway analysis was performed with Metascape (59)."}, "[1]": {"system": "MLL4 mutant colorectal cancer cells (SW480, DLD1, HCT116, RKO)", "experiment": "CellTiter-Glo viability assay in MLL4 wild type and MLL4 mutant colorectal cell lines", "format": "cell-based, human", "conditions": "72 hours; LTX 0-30 μM, Piericidin A 0-10 μM, Phenformin 0-30 mM"}, "Mll3/4 KO mESCs [2]": {"system": "Mll3/4 KO mESCs", "experiment": "MTT cell viability assay in WT and Mll3/4 KO mESCs", "format": "cell-based, mouse", "conditions": "0-40 μM, 48 hours; three Mll3/4 KO clones", "method": "as §2"}, "Mll3/4 KO mESCs [3]": {"system": "Mll3/4 KO mESCs", "experiment": "CellTiter-Glo luminescent cell viability assay in WT and Mll3/4 KO mESCs", "format": "cell-based, mouse", "conditions": "48 hours; LTX 0-2.5 μM, MTX 0-5; three Mll3/4 KO clones", "method": "as §1, §2"}, "[4]": {"system": "CAL51 breast cancer cells", "experiment": "CellTiter-Glo viability assay in CAL51 MLL4 WT, hNTD and KO cells", "format": "cell-based, human", "method": "FIG. 17. Cells lacking of MLL4 function are selectively sensitive to de novo purine synthesis inhibition. (A) Tracer levels of glutamine (M+1) in SW1417, Caco2, RKO and HCT116 cells. (B) Labeled purine metabolite levels with 15 N glutamine tracing in SW1417, Caco2, RKO and HCT116 cells. MLL4 WT cells, blue; MLL4 mutant cells, red. (C) CellTiter-Glo® luminescent cell viability assay in CAL51 MLL4 WT, heterozygous truncation mutation (hNTD), and KO cells treated with MTX (0-1 μM). (D) CAL51 WT and MLL4KO cells were treated with 0.04, or 0.4 μM MTX in the presence of H2O, 50 μM thymidine or 50 μM inosine. CellTiter-Glo® luminescent cell viability assay was performed. (E-J) Cells were infected with lentiviruses expressing shCtrl, shGART or shPAICS. Two distinct shRNAs were included for GART and PAICS. Western blot showing the knockdown of GART and PAICS in RKO, HCT116, Caco2 and HT55 cells (E). The growth rates of HCT116 (F), RKO (G), Caco2 (H) and HT55 (I) cells with shCtrl, shGART or shPAICS were measured by cell counting, and the cell number was normalized with day 0. Colony formation of the four cell lines with GART or PAICS knockdown was performed by seeding 500 or 1000 cells in the 6 well plates and stained after 10-14 days of culture with media change every three days (J)."}}}
{"smiles": "O=c1[nH]cnc2nc[nH]c12", "note": "[HPX, hypoxanthine]", "values": [{"measurement": "gene expression change in WT and Mll3/4 KO cells", "setting": "WT and Mll3/4 KO mESCs", "result": "subtle gene expression or phenotypic change"}]}
{"smiles": "[H]/N=C(/N)N/C(=N/[H])NCCc1ccccc1", "note": "[Phenformin]", "values": [{"measurement": "sensitivity of MLL4 mutant cells compared with MLL4 wild type cells (growth inhibition)", "setting": "[1]", "result": "no sensitivity difference between MLL4 WT and mutant cells"}]}
{"smiles": "C/C=C(\\C)[C@H](O)[C@H](C)/C=C(C)/C=C/C/C(C)=C/Cc1nc(OC)c(OC)c(O)c1C", "note": "[Piericidin A]", "values": [{"measurement": "sensitivity of MLL4 mutant cells compared with MLL4 wild type cells (growth inhibition)", "setting": "[1]", "result": "no sensitivity difference between MLL4 WT and mutant cells"}]}
{"smiles": "Cc1[nH]nc2c1C(c1cc(CO)cc(-c3ccccc3)c1)(C(C)C)C(C#N)=C(N)O2", "note": "(stereo not shown) [SHIN1]", "values": [{"measurement": "sensitivity of Mll3/4 KO cells compared with WT cells (percentage of inhibition, MTT)", "setting": "Mll3/4 KO mESCs [2]", "result": "enhanced sensitivity"}]}
{"smiles": "CN(Cc1cnc2nc(N)nc(N)c2n1)c1ccc(C(=O)N[C@@H](CCC(=O)O)C(=O)O)cc1", "note": "[methotrexate, (2S)-2-[[4-[(2,4-diaminopteridin-6-yl)methyl-methylamino]benzoyl]amino]pentanedioic acid]", "values": [{"measurement": "sensitivity of Mll3/4 KO cells compared with WT cells (percentage of inhibition of viability)", "setting": "Mll3/4 KO mESCs [3]", "result": "enhanced sensitivity"}, {"measurement": "rescue of cytotoxic effect on MLL4KO cells by nucleosides", "setting": "[4]; 0.04 or 0.4 μM MTX with 50 μM thymidine or 50 μM inosine", "result": "rescued by inosine not thymidine"}, {"measurement": "sensitivity of CAL51 cells with compromised MLL4 functions (MLL4hNTD, MLL4KO) compared with WT", "setting": "[4]; MTX 0-1 μM", "result": "elevated MTX sensitivity"}]}
